Here are results for two compounds from patent publication US20230165785A1, “METHOD FOR OBTAINING AN EXTRACT OF SANDALWOOD, COMPOSITIONS COMPRISING SAME AND COSMETIC USES THEREOF” (ISP INVESTMENTS LLC, priority 2020, published 2023).

The subject of one assay is filaggrin. Nature of the assay: Filaggrin expression by indirect immunofluorescence on skin biopsies. In kind it is cell-based, human. The note with it: positive control, concentration not given. The method, then:
Filaggrin is a protein involved in the cohesion and maintenance of the hydration of the upper layer of the epidermis, which is essential for maintaining the homeostasis of the skin barrier.
Filaggrin expression was assessed by indirect immunofluorescence on skin biopsies, pre-treated by topical application of the solubilised extract of depleted sandalwood from Example 1, diluted in 0.1% octyldodecanol (volume/volume percentages, twice daily), for 48 hours. In parallel, biopsies were treated with a sandalwood essential oil of Example 3 from the same geographical site and tested under the same conditions. Control biopsies incubated in parallel under the same conditions were given the placebo (octyldodecanol). After incubation, the biopsies were fixed and embedded in paraffin for histological sections. Detection of filaggrin was performed by incubation with anti-filaggrin antibody (Santa Cruz). After one and a half hours of incubation followed by rinses, the sections were incubated in the presence of the anti-mouse secondary antibody coupled to a fluorophore (Alexa Fluor® 488, Invitrogen). The sections were then examined under an Epi-fluorescence microscope (Zeiss Axiovert 200M microscope). Filaggrin expression was then observed and quantified by image analysis (Volocity® image analysis software, Improvision).

The test system of assay [1] is olfactory receptor OR2AT4. Briefly: OR2AT4 expression by indirect immunofluorescence on human skin biopsies. Format: cell-based. The procedure:
OR2AT4 expression was assessed by indirect immunofluorescence on skin biopsies, pre-treated by topical application of the solubilised extract of depleted sandalwood of Example 1 at 0.1%, 0.5% and 1% (volume/volume percentages), for 48 hours (twice daily). For this purpose, the solubilised extract of depleted sandalwood from Example 1 was diluted in 0.1%, 0.5% and 1% (volume/volume percentages) octyldodecanol. Other biopsies were given similar dilutions of sandalwood essential oil from Example 3 or a synthetic analogue Sandalore. Control biopsies incubated in parallel under the same conditions received placebo (octyldodecanol). After incubation, the biopsies were fixed and embedded in paraffin for histological sections. Detection of the OR2AT4 receptor was performed by incubation with anti-OR2AT4 antibody (Novus). After one and a half hours of incubation followed by rinses, the sections are incubated in the presence of the anti-rabbit secondary antibody coupled to a fluorophore (Alexa Fluor® 488, Invitrogen). The sections were then examined under an Epi-fluorescence microscope (Zeiss Axiovert 200M microscope). OR2AT4 expression was then observed and quantified by image analysis (Volocity® image analysis software, Improvision).

`O=C(O[C@@H]1Cc2c(O)cc(O)cc2O[C@@H]1c1cc(O)c(O)c(O)c1)c1cc(O)c(O)c(O)c1` [EGCG, epigallocatechin gallate]: the increase in filaggrin entry in the assay on filaggrin was “+27%”.

Regarding `CC1=CCC(CCC(C)C(C)O)C1(C)C` (centres unmarked) [Sandalore], the OR2AT4 expression increase in assay [1] (1% (v/v) in octyldodecanol, topical, twice daily, 48 hours, vs placebo) was determined as 28%; in assay [1] (3% topical application), 72%; in assay [1] (5% topical application), 71%. The “effect on OR2AT4 expression” value in assay [1] (application of less than 1%) is listed as “does not seem to have any effect”.
